We go through 27 compounds from patent US12471596B2 (priority 2019, dated 2025).

This assay deals with Phytophthora infestans. Description: microbe, parasite or virus in culture. It is filed as cell-based. The following applies: in Secale cereale, 168 h, read-out: control compared to the untreated check.

Turning to `COc1ncc(OCC(=O)N2CCC(c3nc(C4=NOC(c5cc(Cl)ccc5Cl)C4)cs3)CC2)cn1` (stereo not drawn) [Compound 135, 1-(4-(4-(5-(2,5-dichlorophenyl)-4,5-dihydroisoxazol-3-yl)thiazol-2-yl)piperidin-1-yl)-2-((2-methoxypyrimidin-5-yl)oxy)ethan-1-one], the inhibition of growth at 30 ppm was at least 70%.

Turning to `O=C(COc1nccc(C(F)(F)F)n1)N1CCC(c2nc(C3=NOC(c4c(Cl)cccc4Cl)C3)cs2)CC1` (stereo not drawn) [Compound 47, 1-(4-(4-(5-(2,6-dichlorophenyl)-4,5-dihydroisoxazol-3-yl)thiazol-2-yl)piperidin-1-yl)-2-((4-(trifluoromethyl)pyrimidin-2-yl)oxy)ethan-1-one], the inhibition of growth at 30 ppm was at least 70%.

`O=C(COc1cc(C(F)(F)F)ncn1)N1CCC(c2nc(C3=NOC(c4c(Cl)cccc4C(F)(F)F)C3)cs2)CC1` (stereo not drawn) [Compound 10, 1-(4-(4-(5-(2-chloro-6-(trifluoromethyl)phenyl)-4,5-dihydroisoxazol-3-yl)thiazol-2-yl)piperidin-1-yl)-2-((6-(trifluoromethyl)pyrimidin-4-yl)oxy)ethan-1-one]: the inhibition of growth at 30 ppm was at least 70%.

`COc1ncc(OCC(=O)N2CCC(c3nc(C4=NOC(c5c(Cl)cccc5OS(C)(=O)=O)C4)cs3)CC2)cn1` (stereo not drawn) [Compound 130, 3-chloro-2-(3-(2-(1-(2-((2-methoxypyrimidin-5-yl)oxy)acetyl)piperidin-4-yl)thiazol-4-yl)-4,5-dihydroisoxazol-5-yl)phenyl methanesulfonate]: the inhibition of growth at 30 ppm was at least 70%.

Take `N#Cc1cccc(Cl)c1C1CC(c2csc(C3CCN(C(=O)COc4nccc(C(F)(F)F)n4)CC3)n2)=NO1` (stereo not drawn) [Compound 45, 3-chloro-2-(3-(2-(1-(2-((4-(trifluoromethyl)pyrimidin-2-yl)oxy)acetyl)piperidin-4-yl)thiazol-4-yl)-4,5-dihydroisoxazol-5-yl)benzonitrile]: the inhibition of growth at 30 ppm is at least 70%.

Take `N#Cc1ccnc(OCC(=O)N2CCC(c3nc(C4=NOC(c5cc(Cl)ccc5Cl)C4)cs3)CC2)n1` (stereo not drawn) [Compound 152, 2-(2-(4-(4-(5-(2,5-dichlorophenyl)-4,5-dihydroisoxazol-3-yl)thiazol-2-yl)piperidin-1-yl)-2-oxoethoxy)pyrimidine-4-carbonitrile]: the inhibition of growth at 30 ppm is at least 70%.

In the case of `O=C(COc1nccc(C(F)(F)F)n1)N1CCC(c2nc(C3=NOC(c4c(F)cccc4F)C3)cs2)CC1` (stereo not drawn) [Compound 50, 1-(4-(4-(5-(2,6-difluorophenyl)-4,5-dihydroisoxazol-3-yl)thiazol-2-yl)piperidin-1-yl)-2-((4-(trifluoromethyl)pyrimidin-2-yl)oxy)ethan-1-one], the inhibition of growth at 30 ppm was at least 70%.

On to `CSc1nccnc1OCC(=O)N1CCC(c2nc(C3=NOC(c4c(Cl)cccc4Br)C3)cs2)CC1` (stereo not drawn) [Compound 158, 1-(4-(4-(5-(2-bromo-6-chlorophenyl)-4,5-dihydroisoxazol-3-yl)thiazol-2-yl)piperidin-1-yl)-2-((3-(methylthio)pyrazin-2-yl)oxy)ethan-1-one], for which the inhibition of growth at 30 ppm is at least 70%.

Regarding `CS(=O)(=O)Oc1cccc(Cl)c1C1CC(c2csc(C3CCN(C(=O)COc4ccnc(C(F)(F)F)n4)CC3)n2)=NO1` (stereo not drawn) [Compound 21, 3-chloro-2-(3-(2-(1-(2-((2-(trifluoromethyl)pyrimidin-4-yl)oxy)acetyl)piperidin-4-yl)thiazol-4-yl)-4,5-dihydroisoxazol-5-yl)phenyl methanesulfonate], the inhibition of growth at 30 ppm is at least 70%.

Take `COc1nccnc1OCC(=O)N1CCC(c2nc(C3=NOC(c4c(Cl)cc(Cl)cc4Cl)C3)cs2)CC1` (stereo not drawn) [Compound 24, 2-((3-methoxypyrazin-2-yl)oxy)-1-(4-(4-(5-(2,4,6-trichlorophenyl)-4,5-dihydroisoxazol-3-yl)thiazol-2-yl)piperidin-1-yl)ethan-1-one]: the inhibition of growth at 30 ppm was at least 70%.

Consider `CSc1nccnc1OCC(=O)N1CCC(c2nc(C3=NOC(c4cc(Cl)ccc4Cl)C3)cs2)CC1` (stereo not drawn) [Compound 149, 1-(4-(4-(5-(2,5-dichlorophenyl)-4,5-dihydroisoxazol-3-yl)thiazol-2-yl)piperidin-1-yl)-2-((3-(methylthio)pyrazin-2-yl)oxy)ethan-1-one], for which the inhibition of growth at 30 ppm is at least 70%.

For `CSc1nccnc1OCC(=O)N1CCC(c2nc(C3=NOC(c4c(F)cccc4Br)C3)cs2)CC1` (stereo not drawn) [Compound 141, 1-(4-(4-(5-(2-bromo-6-fluorophenyl)-4,5-dihydroisoxazol-3-yl)thiazol-2-yl)piperidin-1-yl)-2-((3-(methylthio)pyrazin-2-yl)oxy)ethan-1-one], the inhibition of growth at 30 ppm was at least 70%.

As to `O=C(COc1cnc(C(F)(F)F)cn1)N1CCC(c2nc(C3=NOC(c4c(Cl)cccc4Cl)C3)cs2)CC1` (stereo not drawn) [Compound 88, 1-(4-(4-(5-(2,6-dichlorophenyl)-4,5-dihydroisoxazol-3-yl)thiazol-2-yl)piperidin-1-yl)-2-((5-(trifluoromethyl)pyrazin-2-yl)oxy)ethan-1-one], the inhibition of growth at 30 ppm was at least 70%.

In the case of `COc1ncc(OCC(=O)N2CCC(c3nc(C4=NOC(c5c(Cl)cc(Cl)cc5Cl)C4)cs3)CC2)cn1` (stereo not drawn) [Compound 133, 2-((2-methoxypyrimidin-5-yl)oxy)-1-(4-(4-(5-(2,4,6-trichlorophenyl)-4,5-dihydroisoxazol-3-yl)thiazol-2-yl)piperidin-1-yl)ethan-1-one], the inhibition of growth at 30 ppm is at least 70%.

Regarding `O=C(COc1ccnc(C(F)(F)F)n1)N1CCC(c2nc(C3=NOC(c4c(Cl)cc(Cl)cc4Cl)C3)cs2)CC1` (stereo not drawn) [Compound 19, 1-(4-(4-(5-(2,4,6-trichlorophenyl)-4,5-dihydroisoxazol-3-yl)thiazol-2-yl)piperidin-1-yl)-2-((2-(trifluoromethyl)pyrimidin-4-yl)oxy)ethan-1-one], the inhibition of growth at 30 ppm is at least 70%.

As for `COc1cncnc1OCC(=O)N1CCC(c2nc(C3=NOC(c4c(Cl)cccc4Cl)C3)cs2)CC1` (stereo not drawn) [Compound 73, 1-(4-(4-(5-(2,6-dichlorophenyl)-4,5-dihydroisoxazol-3-yl)thiazol-2-yl)piperidin-1-yl)-2-((5-methoxypyrimidin-4-yl)oxy)ethan-1-one], the inhibition of growth at 30 ppm is at least 70%.

Take `CS(=O)(=O)Oc1cccc(Cl)c1C1CC(c2csc(C3CCN(C(=O)COc4cncc(C(F)(F)F)n4)CC3)n2)=NO1` (stereo not drawn) [Compound 57, 3-chloro-2-(3-(2-(1-(2-((6-(trifluoromethyl)pyrazin-2-yl)oxy)acetyl)piperidin-4-yl)thiazol-4-yl)-4,5-dihydroisoxazol-5-yl)phenyl methanesulfonate]: the inhibition of growth at 30 ppm is at least 70%.

Take `COc1cncnc1OCC(=O)N1CCC(c2nc(C3=NOC(c4c(F)cccc4F)C3)cs2)CC1` (stereo not drawn) [Compound 76, 1-(4-(4-(5-(2,6-difluorophenyl)-4,5-dihydroisoxazol-3-yl)thiazol-2-yl)piperidin-1-yl)-2-((5-methoxypyrimidin-4-yl)oxy)ethan-1-one]: the inhibition of growth at 30 ppm was at least 70%.

With `O=C(COc1cc(C(F)(F)F)ncn1)N1CCC(c2nc(C3=NOC(c4c(F)cccc4F)C3)cs2)CC1` (stereo not drawn) [Compound 12, 1-(4-(4-(5-(2,6-difluorophenyl)-4,5-dihydroisoxazol-3-yl)thiazol-2-yl)piperidin-1-yl)-2-((6-(trifluoromethyl)pyrimidin-4-yl)oxy)ethan-1-one], the inhibition of growth at 30 ppm is at least 70%.

For `CS(=O)(=O)Oc1cccc(Cl)c1C1CC(c2csc(C3CCN(C(=O)COc4nccc(C(F)(F)F)n4)CC3)n2)=NO1` (stereo not drawn) [Compound 46, 3-chloro-2-(3-(2-(1-(2-((4-(trifluoromethyl)pyrimidin-2-yl)oxy)acetyl)piperidin-4-yl)thiazol-4-yl)-4,5-dihydroisoxazol-5-yl)phenyl methanesulfonate], the inhibition of growth at 30 ppm was at least 70%.

Regarding `COc1cncnc1OCC(=O)N1CCC(c2nc(C3=NOC(c4c(Cl)cccc4C(F)(F)F)C3)cs2)CC1` (stereo not drawn) [Compound 80, 1-(4-(4-(5-(2-chloro-6-(trifluoromethyl)phenyl)-4,5-dihydroisoxazol-3-yl)thiazol-2-yl)piperidin-1-yl)-2-((5-methoxypyrimidin-4-yl)oxy)ethan-1-one], the inhibition of growth at 30 ppm is at least 70%.

Regarding `O=C(COc1nccc(C(F)(F)F)n1)N1CCC(c2nc(C3=NOC(c4c(Cl)ccc(F)c4F)C3)cs2)CC1` (stereo not drawn) [Compound 70, 1-(4-(4-(5-(6-chloro-2,3-difluorophenyl)-4,5-dihydroisoxazol-3-yl)thiazol-2-yl)piperidin-1-yl)-2-((4-(trifluoromethyl)pyrimidin-2-yl)oxy)ethan-1-one], the inhibition of growth at 30 ppm was at least 70%.

On to `COc1cncc(OCC(=O)N2CCC(c3nc(C4=NOC(c5c(Cl)cccc5C#N)C4)cs3)CC2)n1` (stereo not drawn) [Compound 100, 3-chloro-2-(3-(2-(1-(2-((6-methoxypyrazin-2-yl)oxy)acetyl)piperidin-4-yl)thiazol-4-yl)-4,5-dihydroisoxazol-5-yl)benzonitrile], for which the inhibition of growth at 30 ppm is at least 70%.

In the case of `COc1cncnc1OCC(=O)N1CCC(c2nc(C3=NOC(c4c(F)cccc4Cl)C3)cs2)CC1` (stereo not drawn) [Compound 74, 1-(4-(4-(5-(2-chloro-6-fluorophenyl)-4,5-dihydroisoxazol-3-yl)thiazol-2-yl)piperidin-1-yl)-2-((5-methoxypyrimidin-4-yl)oxy)ethan-1-one], the inhibition of growth at 30 ppm was at least 70%.

In the case of `CS(=O)(=O)Oc1ccc(F)c2c1COC(c1csc(C3CCN(C(=O)COc4ccnc(C(F)(F)F)n4)CC3)n1)OC2` (stereo not drawn) [Compound 156, 9-fluoro-3-(2-(1-(2-((2-(trifluoromethyl)pyrimidin-4-yl)oxy)acetyl)piperidin-4-yl)thiazol-4-yl)-1,5-dihydrobenzo[e][1,3]dioxepin-6-yl methanesulfonate], the inhibition of growth at 30 ppm is at least 70%.

Regarding `COc1ccnc(OCC(=O)N2CCC(c3nc(C4=NOC(c5c(Cl)ccc(F)c5F)C4)cs3)CC2)n1` (stereo not drawn) [Compound 63, 1-(4-(4-(5-(6-chloro-2,3-difluorophenyl)-4,5-dihydroisoxazol-3-yl)thiazol-2-yl)piperidin-1-yl)-2-((4-methoxypyrimidin-2-yl)oxy)ethan-1-one], the inhibition of growth at 30 ppm is at least 70%.

With `COc1ccnc(OCC(=O)N2CCC(c3nc(C4=NOC(c5c(O)cccc5Cl)C4)cs3)CC2)n1` (stereo not drawn) [Compound 83, 1-(4-(4-(5-(2-chloro-6-hydroxyphenyl)-4,5-dihydroisoxazol-3-yl)thiazol-2-yl)piperidin-1-yl)-2-((4-methoxypyrimidin-2-yl)oxy)ethan-1-one], the inhibition of growth at 30 ppm is at least 70%.
